Values after ≈ are worked out from the molar mass of the structure shown. Read-outs that look alike come from different tables or passages of the source.
Key:
Lomentospora prolificans = experiment: MIC against rare moulds resistant to AmB; assay type: cell-based; conditions: 6 isolates, Table 4
Rhodotorula sp. = experiment: MIC against yeasts; assay type: cell-based; conditions: 6 isolates, Table 3
Coccidioides posadasii = experiment: microbe, parasite or virus in culture; assay type: cell-based; conditions: for MIC Coccidioides posadasii: 6 isolates, AmB (AmBisome)
Sporothrix schenckii = experiment: MIC against rare moulds resistant to AmB; assay type: cell-based; conditions: 6 isolates, Table 4
A. fumigatus = experiment: MIC against moulds; assay type: cell-based
Coccidioides immitis = experiment: microbe, parasite or virus in culture; assay type: cell-based; conditions: for MIC Coccidioides immitis: 6 isolates, AmB (AmBisome)
Fonsecaeu sp. = experiment: MIC against moulds; assay type: cell-based; conditions: 6 isolates; AmB (AmBisome)
Syncephalastrum sp. = experiment: MIC against moulds; assay type: cell-based; conditions: 6 isolates, AmB (AmBisome)
moulds = experiment: MICavg / Average MIC against moulds; assay type: cell-based; conditions: for MIC: 157 isolates, Table 2
[1] = Blood plasma stability, human; assay type: in vitro ADME
A. tubingensis = experiment: MIC against moulds; assay type: cell-based; conditions: for MIC A. tubingensis: 6 isolates, AmB (AmBisome)
Talaromyces marneffei = experiment: MIC against moulds; assay type: cell-based; conditions: 6 isolates, AmB (AmBisome)
Cryptococcus gattii = experiment: MIC against yeasts; assay type: cell-based
Scedosporium aurantiacum = experiment: MIC against rare moulds resistant to AmB; assay type: cell-based; conditions: 4 isolates, Table 4
Mucor circinelloides = experiment: MIC against moulds; assay type: cell-based; conditions: for MIC Mucor circinelloides: 6 isolates, AmB (AmBisome)
Claophialophora bantiana = experiment: MIC against moulds; assay type: cell-based; conditions: 6 isolates; AmB (AmBisome)
A. calldoustus = experiment: MIC against moulds; assay type: cell-based; conditions: 6 isolates; AmB (AmBisome)
Blastomyces dermatitidis = experiment: MIC against moulds; assay type: cell-based; conditions: 5 isolates, AmB (AmBisome)
Fusarium oxysporum = experiment: MIC against moulds; assay type: cell-based; conditions: 6 isolates, AmB (AmBisome)
Candida parapsilosis = experiment: MIC against yeasts; assay type: cell-based
Apophysomyces sp. = experiment: MIC against moulds; assay type: cell-based; conditions: 3 isolates; AmB (AmBisome)
Mucor janssenii = experiment: MIC against moulds; assay type: cell-based; conditions: 6 isolates, AmB (AmBisome)
Mucor velutinosus = experiment: MIC against moulds; assay type: cell-based; conditions: 6 isolates, AmB (AmBisome)
Scedosporium boydii = experiment: MIC against rare moulds resistant to AmB; assay type: cell-based; conditions: 6 isolates, Table 4
yeast = experiment: MICavg / Average MIC against yeasts; assay type: cell-based; conditions: for MIC: 46 isolates, Table 3
Fusarium solani = experiment: MIC against moulds; assay type: cell-based
A. niger = experiment: MIC against moulds; assay type: cell-based; conditions: 6 isolates, AmB (AmBisome)
Cunninghamella sp. = experiment: MIC against moulds; assay type: cell-based; conditions: 6 isolates, AmB (AmBisome)
Candida auris = experiment: MIC against yeasts; assay type: cell-based
[2] = test system: erythrocytes (whole human blood); experiment: MHC hemolysis assay; assay type: cell-based
Protocol: MHC (FIG. 1B and FIG. 10): The protocol for the hemolysis assay was adapted from the report of Paquet and coworkers (Chem. Eur. J. 2008, 14, 2465-2481). Whole human blood (sodium heparin) was purchased from Bioreclamation LLC (Westbury, NY) and stored at 4° C. and used within two days of receipt. To a 2.0 mL appendorf tube, 1 mL of whole human blood was added and centrifuged at 10,000 g for 2 minutes. The supernatant was removed and the erythrocyte pellet was washed with 1 mL of sterile saline and centrifuged at 10,000 g for 2 minutes. The saline wash was repeated for a total of three washes. The erythrocyte pellet was suspended in 1 mL of RBC buffer (10 mM NaH2PO4, 150 mM NaCl, 1 mM MgCl2, pH 7.4) to form the erythrocyte stock suspension.
Compounds were prepared as >15 mM stock solutions in DMSO and serially diluted to the following concentrations with DMSO: 7689, 5126, 2563, 2050, 1538, 1025, 769, 513, 384, 256, 205, 154, 103, 77, 51, 26 μM. To a 0.2 mL PCR tube, 24 μL of RBC buffer and 1 μL of compound stock solution were added, which gave final concentrations of 500, 300, 200, 100, 80, 60, 40, 30, 20, 15, 10, 8, 6, 4, 3, 2, 1 μM. Positive and negative controls were prepared by adding 1 μL of DMSO to MilliQ water or RBC buffer, respectively to 0.2 mL PCR tube. To each PCR tube, 0.63 μL. of the erythrocyte stock suspension was added and mixed by inversion. The samples were incubated at 37° C. for 2 hours. The samples were mixed by inversion and centrifuged at 10,000 g for 2 minutes. 15 μL of the supernatant from each sample was added to a 384-well place. Absorbances were read at 540 nm using a Biotek H1 Synergy Hybrid Reader (Winooski, VT), Experiments were performed in triplicate and the reported MHC represents an average of three experiments.

[3] = Blood plasma stability, mouse; assay type: in vitro ADME
[4] = 10 isolates, Table 3, read-out: MIC Cryptococcus gattii

C[C@@H]1[C@H](O)[C@@H](C)/C=C/C=C/C=C/C=C/C=C/C=C/C=C/[C@H](OC2O[C@H](C)[C@@H](O)[C@H](N)[C@@H]2O)C[C@@H]2O[C@](O)(C[C@@H](O)C[C@@H](O)[C@H](O)CC[C@@H](O)C[C@@H](O)CC(=O)O[C@H]1C)C[C@H](O)[C@H]2C(=O)O (some centres unmarked) [AmB, Amphotericin B]
MIC (Lomentospora prolificans; Lomentospora prolificans): > 16 µM
MIC (Rhodotorula sp.; Rhodotorula): 1 µM (≈ 0.924 µg/mL)
MIC (Coccidioides posadasii; Coccidioides posadasii, read-out: MIC Coccidioides posadasii): 0.06 µM (≈ 0.0554 µg/mL)
MIC (Sporothrix schenckii; Sporothrix schenckii): 4 µM (≈ 3.7 µg/mL)
MIC (A. fumigatus; Aspergillus fumigatus, 5 isolates, AmB (AmBisome)): 0.71 µM (≈ 0.656 µg/mL)
MIC (A. fumigatus; Aspergillus fumigatus, 16 isolates, Table 2A): 2.1 µM (≈ 1.94 µg/mL)
MIC (Coccidioides immitis; Coccidioides immitis, read-out: MIC Coccidioides immitis): 0.125 µM (≈ 0.116 µg/mL)
MIC (Fonsecaeu sp.): < 0.03 µM
MIC (Syncephalastrum sp.; Syncephalastrum): 0.06 µM (≈ 0.0554 µg/mL)
MICavg moulds (3 strains) (moulds): 0.92
MIC (moulds): 0.9 µM (≈ 0.832 µg/mL)
MICavg moulds (159 strains) (moulds): 0.9
half-life ([1]; human, blood plasma, read-out: Blood Plasma Stability (T1/2, min) Human): > 289 min
MIC (A. tubingensis; Aspergillus tubingensis, read-out: MIC A. tubingensis): 0.125 µM (≈ 0.116 µg/mL)
MIC (Talaromyces marneffei; Talaromyces marneffei): 0.09 µM (≈ 0.0832 µg/mL)
MIC (Cryptococcus gattii; Cryptococcus gattii, 1 isolate, Table 3A, read-out: MIC Cryptococcus gatti): 1 µM (≈ 0.924 µg/mL)
MIC (Cryptococcus gattii; Cryptococcus gattii, 10 isolates, Table 3, read-out: MIC Cryptococcus gattii): 0.75 µM (≈ 0.693 µg/mL)
MIC (Scedosporium aurantiacum; Scedosporium aurantiacum): > 16 µM
MIC (Mucor circinelloides; Mucor circinelloides, read-out: MIC Mucor circinelloides): 0.125 µM (≈ 0.116 µg/mL)
MIC (Claophialophora bantiana): 0.375 µM (≈ 0.347 µg/mL)
MIC (A. calldoustus): 1.5 µM (≈ 1.39 µg/mL)
MIC (Blastomyces dermatitidis; Blastomyces dermatitidis): < 0.03 µM
MIC (Fusarium oxysporum; Fusarium oxysporum): 1.5 µM (≈ 1.39 µg/mL)
MIC (Candida parapsilosis; Lodderomyces parapsilosis, 6 isolates, Table 3A): 0.5 µM (≈ 0.462 µg/mL)
MIC (Candida parapsilosis; Lodderomyces parapsilosis, 8 isolates, Table 3): 1.1 µM (≈ 1.02 µg/mL)
MIC (Apophysomyces sp.): 0.75 µM (≈ 0.693 µg/mL)
MIC (Mucor janssenii; Mucor janssenii): 0.06 µM (≈ 0.0554 µg/mL)
MIC (Mucor velutinosus; Mucor velutinosus): 0.08 µM (≈ 0.0739 µg/mL)
MIC (Scedosporium boydii; Scedosporium boydii): > 16 µM
MICavg yeast (5 strains) (yeast): 0.23
MIC (yeast): 0.9 µM (≈ 0.832 µg/mL)
MICavg yeast (46 strains) (yeast): 0.9
MIC (Fusarium solani; Fusarium solani, 2 isolates, Table 3A): 3 µM (≈ 2.77 µg/mL)
MIC (Fusarium solani; Fusarium solani, 6 isolates, AmB (AmBisome)): 1.33 µM (≈ 1.23 µg/mL)
MIC (A. niger; Aspergillus niger): 0.21 µM (≈ 0.194 µg/mL)
MIC (Cunninghamella sp.; Cunninghamella): 2 µM (≈ 1.85 µg/mL)
MIC (Candida auris; Candidozyma auris, 10 isolates, Table 3): 1.2 µM (≈ 1.11 µg/mL)
MIC (Candida auris; Candidozyma auris, 15 isolates, Table 3A): 2.9 µM (≈ 2.68 µg/mL)
MHC [2]: 8.4
half-life ([3]; mouse, blood plasma, read-out: Blood Plasma Stability (T1/2, min) Mouse): > 289 min

CC1C=CC=CC=CC=CC=CC=CC=CC(OC2OC(C)C(O)C(N)C2O)CC2OC(O)(CC(O)CC(O)C(O)CCC(O)CC(O)CC(=O)OC(C)C(C)C1O)CC(O)C2C(=O)NC(CO)(CO)CO (centres unmarked) [Compound 2]
MIC (Lomentospora prolificans): >16 µM
MIC (Rhodotorula sp.): 3.7 µM (≈ 3.8 µg/mL)
MIC Coccidioides posadasii (Coccidioides posadasii): 0.5 µM (≈ 0.514 µg/mL)
MIC (Sporothrix schenckii): >5.2 µM
MIC (A. fumigatus; 5 isolates, AmB (AmBisome)): 2.33 µM (≈ 2.39 µg/mL)
MIC Coccidioides immitis (Coccidioides immitis): 0.27 µM (≈ 0.277 µg/mL)
MIC (Fonsecaeu sp.): <0.03 µM
MIC (Syncephalastrum sp.): 1 µM (≈ 1.03 µg/mL)
MICavg moulds (3 strains) (moulds): 1
MIC (moulds): 2.6 µM (≈ 2.67 µg/mL)
MICavg moulds (159 strains) (moulds): 2.6
Blood Plasma Stability (T1/2, min) Human [1]: > 289 min
MIC A. tubingensis (A. tubingensis): 0.92 µM (≈ 0.945 µg/mL)
MIC (Talaromyces marneffei): 0.21 µM (≈ 0.216 µg/mL)
MIC (Cryptococcus gattii; [4]): 2 µM (≈ 2.05 µg/mL)
MIC (Scedosporium aurantiacum): >16 µM
MIC Mucor circinelloides (Mucor circinelloides): 0.92 µM (≈ 0.945 µg/mL)
MIC (Claophialophora bantiana): 1.83 µM (≈ 1.88 µg/mL)
MIC (A. calldoustus): 2.33 µM (≈ 2.39 µg/mL)
MIC (Blastomyces dermatitidis): 0.6 µM (≈ 0.616 µg/mL)
MIC (Fusarium oxysporum): 13.3 µM (≈ 13.7 µg/mL)
MIC (Candida parapsilosis; 8 isolates, Table 3): 1.6 µM (≈ 1.64 µg/mL)
MIC (Apophysomyces sp.): 8.3 µM (≈ 8.53 µg/mL)
MIC (Mucor janssenii): 0.92 µM (≈ 0.945 µg/mL)
MIC (Mucor velutinosus): 1.17 µM (≈ 1.2 µg/mL)
MIC (Scedosporium boydii): >16 µM
MICavg yeast (5 strains) (yeast): 0.41
MIC (yeast): 2.3 µM (≈ 2.36 µg/mL)
MICavg yeast (46 strains) (yeast): 2.3
MIC (Fusarium solani; 6 isolates, AmB (AmBisome)): 14 µM (≈ 14.4 µg/mL)
MIC (A. niger): 0.75 µM (≈ 0.77 µg/mL)
MIC (Cunninghamella sp.): 5.33 µM (≈ 5.48 µg/mL)
MIC (Candida auris; 10 isolates, Table 3): 2.6 µM (≈ 2.67 µg/mL)
MHC [2]: >60
Blood Plasma Stability (T1/2, min) Mouse [3]: 265.1 min

CC1C=CC=CC=CC=CC=CC=CC=CC(OC2OC(C)C(O)C(N)C2O)CC2OC(O)(CC(O)CC(O)C(O)CCC(O)CC(O)CC(=O)OC(C)C(C)C1O)CC(O)C2C(=O)NC(CO)CO (centres unmarked) [Compound 1]
MIC (Lomentospora prolificans): >16 µM
MIC (Rhodotorula sp.): 2.8 µM (≈ 2.79 µg/mL)
MIC Coccidioides posadasii (Coccidioides posadasii): 0.25 µM (≈ 0.249 µg/mL)
MIC (Sporothrix schenckii): 6 µM (≈ 5.98 µg/mL)
MIC (A. fumigatus; 5 isolates, AmB (AmBisome)): 1.33 µM (≈ 1.33 µg/mL)
MIC Coccidioides immitis (Coccidioides immitis): 0.27 µM (≈ 0.269 µg/mL)
MIC (Fonsecaeu sp.): <0.03 µM
MIC (Syncephalastrum sp.): 0.5 µM (≈ 0.499 µg/mL)
MICavg moulds (3 strains) (moulds): 1.6
MIC (moulds): 1.4 µM (≈ 1.4 µg/mL)
MICavg moulds (159 strains) (moulds): 1.4
Blood Plasma Stability (T1/2, min) Human [1]: >289; >289 min
MIC A. tubingensis (A. tubingensis): 0.83 µM (≈ 0.828 µg/mL)
MIC (Talaromyces marneffei): 0.12 µM (≈ 0.12 µg/mL)
MIC (Cryptococcus gattii; [4]): 1.6 µM (≈ 1.6 µg/mL)
MIC (Scedosporium aurantiacum): >16 µM
MIC Mucor circinelloides (Mucor circinelloides): 0.58 µM (≈ 0.578 µg/mL)
MIC (Claophialophora bantiana): 1.17 µM (≈ 1.17 µg/mL)
MIC (A. calldoustus): 2.17 µM (≈ 2.16 µg/mL)
MIC (Blastomyces dermatitidis): 0.25 µM (≈ 0.249 µg/mL)
MIC (Fusarium oxysporum): 6 µM (≈ 5.98 µg/mL)
MIC (Candida parapsilosis; 8 isolates, Table 3): 1.8 µM (≈ 1.79 µg/mL)
MIC (Apophysomyces sp.): 6.8 µM (≈ 6.78 µg/mL)
MIC (Mucor janssenii): 0.5 µM (≈ 0.499 µg/mL)
MIC (Mucor velutinosus): 0.67 µM (≈ 0.668 µg/mL)
MIC (Scedosporium boydii): >16 µM
MICavg yeast (5 strains) (yeast): 0.53
MIC (yeast): 2.1 µM (≈ 2.09 µg/mL)
MICavg yeast (46 strains) (yeast): 2.1
MIC (Fusarium solani; 6 isolates, AmB (AmBisome)): 5.67 µM (≈ 5.65 µg/mL)
MIC (A. niger): 0.5 µM (≈ 0.499 µg/mL)
MIC (Cunninghamella sp.): 4 µM (≈ 3.99 µg/mL)
MIC (Candida auris; 10 isolates, Table 3): 2.6 µM (≈ 2.59 µg/mL)
MHC [2]: >100
Blood Plasma Stability (T1/2, min) Mouse [3]: >289; >289 min
